AC50 data for 80 molecules are collected here from PubChem BioAssay AID977630 (Broad Institute, 2014).

The test system of the assay is E. coli wild-type GFP growth, mixed culture, 24 h. The assay can be described thus: growth inhibition of wild-type GFP E. coli, H38-humanized RFP comparator, dose response, H38 mutant RFP vs wild-type GFP, cherry-pick (AID 977630).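 Further: wild-type GFP strain mixed equally with humanized-ribosome H38 mutant expressing RFP.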
Setting [1] is: E. coli mixed culture total OD600 growth, 24 h.

Results filed as inconclusive are left out. Calls of active or inactive are those of the source.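 How the source made its calls: active means Normal-ribosome green reporter loss at least double humanized-ribosome red reporter loss, with overall culture growth inhibition under a set limit; inconclusive means no clear call, values can overlap the other calls; inactive means the rest.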 Some results are limits rather than exact numbers.

Broadly, the AC50 is the concentration giving half of the maximal activity seen. On to `Cc1ccc(Cl)cc1N1CCN(C(=O)c2ccc3nc[nH]c3c2)CC1`, for which the AC50 is > 100 µM (inactive).

`C=CCN(c1ccccc1)S(=O)(=O)c1ccc(Cl)c(C(=O)OCC(=O)NCCCN2CCCC2=O)c1` displayed a concentration at half-maximal activity (AC50) under setting [1] greater than 100 µM.

`Cc1ccc(NC(=O)COC(=O)CCNS(=O)(=O)c2c(Cl)cccc2Cl)cc1`: the half-maximal activity concentration (AC50) under setting [1] was greater than 100 µM.

Turning to `Cc1cc(C)n(CC(O)COc2ccc3ccccc3c2)n1` (centres undefined), the AC50 is > 100 µM (inactive). Besides, under setting [1], the AC50 is greater than 100 µM.

In the case of `CC(=O)N1CCOc2ccc(S(=O)(=O)N(C)c3ccc(C)cc3)cc21`, the AC50 is > 100 µM (inactive).

Molecule `CNC(=O)c1ccsc1NC(=O)c1ccc(S(=O)(=O)N2CCc3ccccc32)cc1` had an AC50 under setting [1] greater than 100 µM.

Turning to `COc1cccc(CC(=O)OC(C)C(=O)NCc2ccc3c(c2)OCO3)c1` (centres undefined), the AC50 was > 100 µM (inactive).

For `Cc1ccc(NC(=O)c2ccc([N+](=O)[O-])s2)cc1S(=O)(=O)N1CCOCC1`, the AC50 is > 100 µM (inactive). Further, the half-maximal activity concentration (AC50) under setting [1] was greater than 100 µM.

For `CCOc1cccc(-c2cc(-c3n[nH]c(=S)n3CC)c3ccccc3n2)c1`, the AC50 is > 100 µM (inactive).

On to `O=C(COc1cc(F)ccc1[N+](=O)[O-])NCCCc1ccccc1`, for which the AC50 is > 100 µM (inactive).

Consider `CN(C)CCCN(C(=O)COc1ccc(Cl)cc1)c1nc2ccc(F)cc2s1`, for which the AC50 was > 100 µM (inactive).

Take `Cc1onc(-c2ccccc2Cl)c1C(=O)OCC(=O)c1ccccc1`: the AC50 under setting [1] was greater than 100 µM.

In turn, `COc1ccc(-c2csc(NC(=O)c3ccccc3S(C)(=O)=O)n2)cc1` had a half-maximal activity concentration (AC50) under setting [1] greater than 100 µM.

Turning to `CCCc1c(C(=O)Nc2ccc(OC)cc2)cnn1-c1ccccc1`, the AC50 is > 100 µM (inactive). This molecule registered a half-maximal activity concentration (AC50) under setting [1] greater than 100 µM.

In the case of `Nc1nc(Nc2ccccc2F)nc(N2CCOCC2)c1[N+](=O)[O-]`, the AC50 was > 100 µM (inactive).

Take `CC(=O)Nc1ccc(CNc2nc(NCCN(C)C)nc3cc(-c4ccccc4)sc23)cc1`: the AC50 is > 100 µM (inactive).

Consider `Cc1ccc(S(=O)(=O)Nc2ccccc2CNc2cccc(C)n2)cc1`, for which the AC50 was > 100 µM (inactive).

On to `COc1ccc(OC)c(-c2csc(NC(=O)C3COc4ccccc4O3)n2)c1` (centres undefined), for which the AC50 is > 100 µM (inactive).

With `CC(C)(C)c1ccc(-c2noc(CCC(=O)NCc3ccco3)n2)cc1`, the AC50 was > 100 µM (inactive).

Consider `Cc1ccc(-n2nc(C)c3c(C)c(CCC(=O)O)c(C)nc32)cc1C`, for which the AC50 was > 100 µM (inactive). Under setting [1], this molecule showed an AC50 greater than 100 µM.

With `Cc1nc(SCC(=O)Nc2ccc3c(c2)OCCO3)nc(C)c1C`, the AC50 was > 100 µM (inactive). The molecule also registered a concentration at half-maximal activity (AC50) under setting [1] greater than 100 µM.

Turning to `CC1CCCN(C(=O)C(C)Nc2cc(Cl)ccc2N2CCOCC2)C1` (centres undefined), the AC50 is > 100 µM (inactive).

With `Cc1ccc(SCC(=O)Nc2ccc(S(=O)(=O)Nc3nccs3)cc2)cc1`, the AC50 is > 100 µM (inactive).

Take `O=C(CCCn1c(=S)[nH]c2ccsc2c1=O)Nc1ccc2c(c1)OCCO2`: the AC50 is > 100 µM (inactive). The molecule also had a concentration at half-maximal activity (AC50) under setting [1] greater than 100 µM.

Take `CC(C)(C)C1CCC(C(=O)OCC(=O)N2CCN(C(=O)c3ccco3)CC2)CC1` (centres undefined): the AC50 is > 100 µM (inactive).

Regarding `O=C1c2ccccc2CSc2c(O)cccc21`, the AC50 was > 100 µM (inactive). The same molecule registered an AC50 under setting [1] of 50.8 µM.

Regarding `CC1(C)CC2CC(C)(CN2c2ncnc3ccccc23)C1` (centres undefined), the AC50 is > 100 µM (inactive). Further, the AC50 under setting [1] was greater than 100 µM.

In the case of `CN1CCN(c2nc(Nc3ccc(O)cc3)nc3ccccc23)CC1`, the AC50 was > 100 µM (inactive).

`Cc1nn(-c2cccc(Cl)c2)nc1C(=O)O`: the AC50 is > 100 µM (inactive).

On to `COc1ccc2[nH]c3c(=O)n(CCCCC(=O)NCCC(C)C)c(=S)[nH]c3c2c1`, for which the half-maximal activity concentration (AC50) is 2.42 µM. In addition, under setting [1], the AC50 is greater than 100 µM.

Take `Cc1nn2c(NCc3ccccn3)cc(C(C)C)nc2c1-c1ccccc1`: the AC50 is > 100 µM (inactive).

With `CC1Cc2ccccc2N1C(=O)CN1C(=O)NC(C)(CCc2ccccc2)C1=O` (centres undefined), the AC50 under setting [1] was greater than 100 µM.

In the case of `CCN(c1ccccc1)S(=O)(=O)c1ccc(Cl)c(NC(=O)CSc2n[nH]c(N)n2)c1`, the AC50 was > 100 µM (inactive). The molecule further gave an AC50 under setting [1] greater than 100 µM.

Regarding `COc1ccc(OC)c(NC(=O)CN(C)CC(=O)Nc2ccccc2Br)c1`, the AC50 was > 100 µM (inactive).

For the molecule `Brc1ccc(Nc2ncnc3[nH]ncc23)cc1`, the AC50 was > 100 µM (inactive).

Take `CC(=O)Nc1ccc(-c2ccnc3c2CC(C)(C(=O)Nc2ccc4c(c2)OCO4)O3)cc1` (centres undefined): the AC50 is > 100 µM (inactive).

As to `O=C(Nc1ccn(Cc2ccc(Cl)cc2)n1)c1ccccc1`, the AC50 under setting [1] was greater than 100 µM.

`Cc1cc(C(=O)COC(=O)CNC(=O)c2ccccc2)c(C)n1CC1CCCO1` (centres undefined): the AC50 is > 100 µM (inactive).

As to `C=CCn1c(C)cc(C(=O)CSc2nnc(C3CC3)n2C2CC2)c1C`, the AC50 was > 100 µM (inactive). The molecule also gave a half-maximal activity concentration (AC50) under setting [1] greater than 100 µM.

Regarding `Cn1cc(CN2CCCC(C(=O)c3cccs3)C2)c(-c2cccc(Cl)c2)n1` (centres undefined), the AC50 is > 100 µM (inactive).

On to `CS(=O)(=O)c1ccc(Cl)c(NC(=O)CSc2nncn2-c2ccccc2)c1`, for which the AC50 was > 100 µM (inactive).

With `O=S(=O)(NCc1ccc2c(c1)OCO2)c1ccc2c(c1)oc1ccccc12`, the AC50 is > 100 µM (inactive). This molecule returned an AC50 under setting [1] of 27.2 µM.

`CCN(CC)S(=O)(=O)c1ccc(N2CCCC2)c(NC(=O)c2ccccc2OC)c1` showed an AC50 under setting [1] greater than 100 µM.

`Cc1cccc(C(=O)NCC(=O)N2CC=C(c3ccccc3)CC2)c1`: the AC50 was > 100 µM (inactive).

As to `S=c1nc(-c2cc(Cl)cc(Cl)c2)[nH][nH]1`, the AC50 was > 100 µM (inactive).

As for `COc1cccc(C(=O)Nc2nnc(S(=O)(=O)N(C)Cc3ccccc3)s2)c1`, the AC50 was > 100 µM (inactive). Further, the concentration at half-maximal activity (AC50) under setting [1] worked out at 50.9 µM.

Consider `COc1ccccc1CN1Cc2ccccc2Oc2ccccc2S1(=O)=O`, for which the AC50 is > 100 µM (inactive). Besides, under setting [1], the half-maximal activity concentration (AC50) is greater than 100 µM.

Regarding `CN(c1ccccc1)S(=O)(=O)c1cccc(NC(=O)CCNC(=O)c2ccc([N+](=O)[O-])cc2)c1`, the AC50 was > 100 µM (inactive). The same molecule showed a concentration at half-maximal activity (AC50) under setting [1] greater than 100 µM.

As to `CC(=O)N1CCN(c2nc(-c3cccs3)nc3ccccc23)CC1`, the AC50 is > 100 µM (inactive).

With `Cc1ccc2c(N)c(C(=O)c3ccccc3)sc2n1`, the AC50 under setting [1] is greater than 100 µM.

Regarding `O=C(c1cnc(Cc2c[nH]c3ccccc23)c(I)c1)N1CCCCC1`, the AC50 was > 100 µM (inactive). In addition, the concentration at half-maximal activity (AC50) under setting [1] was greater than 100 µM.

As to `CCc1cccc(NC(=O)c2ccc3c(=O)n4c(nc3c2)CCCCC4)c1`, the AC50 is > 100 µM (inactive).

For the molecule `Cc1noc(NS(=O)(=O)c2ccc(NC(=O)c3cc(-c4ccccc4Cl)nc4ccccc34)cc2)c1C`, the AC50 is > 100 µM (inactive). The molecule further came in with an AC50 under setting [1] greater than 100 µM.

Under setting [1], `C[C@@H]1CCCCO[C@H](CN(C)C(=O)CCCN(C)C)[C@H](C)CN([C@@H](C)CO)C(=O)c2cc(NC(=O)Nc3cccc4ccccc34)ccc2O1` showed an AC50 greater than 100 µM.

With `Cc1ccsc1C(=O)OCC(=O)N1CCc2ccccc2C1`, the AC50 was > 100 µM (inactive).

For `O=C(c1ccc(N2CCCCC2)c([N+](=O)[O-])c1)N1CCN(c2ccccn2)CC1`, the AC50 is > 100 µM (inactive). This molecule had an AC50 under setting [1] greater than 100 µM.

Take `O=C(Nc1cccnc1)c1ccc([N+](=O)[O-])o1`: the AC50 was > 100 µM (inactive).

In the case of `COc1cccc(CNC(=O)CCSCc2ccccc2F)c1`, the AC50 was > 100 µM (inactive). Under setting [1], this molecule yielded an AC50 greater than 100 µM.

`COCC#Cc1ccc2c(c1)O[C@@H](CN(C)S(=O)(=O)c1cccc(F)c1)[C@@H](C)CN([C@H](C)CO)S2(=O)=O`: the half-maximal activity concentration (AC50) under setting [1] is greater than 100 µM.

With `CSc1ccc(CN(C)CC(=O)NC(C)c2ccccc2)cc1` (centres undefined), the AC50 under setting [1] is greater than 100 µM.

Take `Cc1cccc(NC(=O)c2sc3nc(-c4ccccc4)cn3c2C)n1`: under setting [1], the AC50 was greater than 100 µM.

For `COc1ccc(C(NC(=O)C2CCN(CCOc3ccc(Cl)cc3Cl)CC2)c2ccccc2C)cn1` (centres undefined), under setting [1], the AC50 was greater than 100 µM.

In the case of `O=C(NCc1ccco1)c1ccc(COc2cccc3ccccc23)cc1`, the AC50 is > 100 µM (inactive).

Regarding `CCOc1ncccc1C(=O)OCC(=O)NCCCc1ccccc1`, the AC50 is > 100 µM (inactive).

Molecule `CCOC(=O)C(CC)Sc1cc(C)nc2ccc(OC)cc12` (centres undefined) yielded a concentration at half-maximal activity (AC50) under setting [1] greater than 100 µM.

As to `CCCC(=O)Nc1sc2c(c1C(=O)Nc1ccccn1)CCCC2`, the AC50 was > 100 µM (inactive). The molecule further returned a half-maximal activity concentration (AC50) under setting [1] greater than 100 µM.

As to `O=S1(=O)c2ccc(Br)cc2OCCC2CCCCN21` (centres undefined), the AC50 was > 100 µM (inactive). Further, under setting [1], the concentration at half-maximal activity (AC50) is greater than 100 µM.

For the molecule `COC(=O)c1sccc1NC(=O)CNC(=O)c1ccccc1`, under setting [1], the concentration at half-maximal activity (AC50) is greater than 100 µM.

Consider `CCc1nc2ccccc2n1CCc1ccccc1`, for which the AC50 was > 100 µM (inactive).

As to `O=C(NCCc1csc(-c2ccccc2)n1)c1ccccc1F`, the AC50 is > 100 µM (inactive).

On to `Cc1c(Cc2ccccc2)sc(NC(=O)Cc2ccccc2)c1C(N)=O`, for which the AC50 was > 100 µM (inactive).

Turning to `CC(=O)Nc1nc(C)c(-c2csc(Nc3ccccn3)n2)s1`, the AC50 is > 100 µM (inactive).

On to `Cc1cccc(NC(=O)CN(C)S(=O)(=O)c2cccs2)c1`, for which the AC50 was > 100 µM (inactive).

For the molecule `O=C1c2ccccc2C(c2nnnn2C2CCCCC2)N1CCc1ccc(O)cc1` (centres undefined), the AC50 was > 100 µM (inactive). In addition, the AC50 under setting [1] is greater than 100 µM.

As for `O=C(c1cccs1)c1c[nH]cc1-c1ccccc1`, under setting [1], the AC50 was greater than 100 µM.

On to `COc1ccc(OC)c(NC(=O)COC(=O)C2CCN(C(=O)c3ccc(Cl)cc3)CC2)c1`, for which the AC50 is > 100 µM (inactive).

Take `Cc1cc(C(=O)OCC(=O)Nc2cccc(S(N)(=O)=O)c2)c2ccccc2n1`: the AC50 is > 100 µM (inactive). Under setting [1], this molecule had a concentration at half-maximal activity (AC50) greater than 100 µM.

`COc1ccc2nc(SCC(=O)Nc3ccccc3)[nH]c2c1`: the AC50 was > 100 µM (inactive). For the same molecule, the AC50 under setting [1] is greater than 100 µM.

In the case of `Cc1ccc(NS(=O)(=O)c2ccc3c(c2)CCC(=O)N3)cc1C`, the AC50 is > 100 µM (inactive).

`O=[N+]([O-])c1ccccc1Oc1ccc(Cl)c2cccnc12`: the AC50 was > 100 µM (inactive).
